Test [1] deals with NGF specific surface receptor on PC12 cells. The test is described as follows: Displacement of 125I-NGF binding to PC12 cells. The conditions noted are these: 0.1 nM 125I-NGF. Here is the method:
The ability of selected compounds to displace the binding of NGF to specific surface receptor was evaluated through the classic binding techniques of iodinated ligand.
PC12 cells were detached from tissue flasks with PBS-EDTA, washed with HKR medium (10 mM Hepes, 125 mM NaCl, 4.8 mM KCl, 1.3 mM CaCl2, 1.2 mM MgSO4, 1.2 mM KH2PO4, 1 g/l glucose, 1 g/l BSA) and incubated in triplicate in HKR medium with 0.1 nM ^125I-NGF in the presence or absence of variable concentrations of the compounds to be assayed or of hrNGF as internal standard. Displacement curve was obtained by analyzing the resultant cell bound radioactivity in the presence of the compounds or of hrNGF with adequate software (Graphit 4).
In general terms: Displacement assays read how much labelled ligand stays bound in the presence of the test substance.

In test [2] the test system is VGF. The test is described as follows: Induction of VGF production by PC12 cells (western blot). The class given is cell-based. The following applies: FIG. 3. As for the experimental part: The ability of 3-aza-bicyclo(3.2.1)octanes of formula (I) and their dimeric forms of formula (II) and (III) with substitution reported in Table 1-4 was tested also as ability to induce VGF production by PC12 cells. […] Cells were lysed in 0.25% NP-40 in PBS supplemented with 1 mM PMSF (phenyl-methyl) and 1 mM leupeptin and protein concentration was measured in each sample by Bradford assay. Equal amounts of proteins (30 μg) were loaded in 8% SDS-polyacrilamide gel, electrophoresed, blotted onto nitrocellulose membrane and stained with monoclonal antibodies anti-VGF followed by peroxidase-conjugated anti-mouse IgG. Reaction was visualized by Enhanced Chemiluminiscent Reagent (ECL, Amersham) following the manufacturer instruction.
VGF is induced by the selected compounds as well as by hrNGF.
On the technique in general: In western blotting, separated proteins are transferred to a membrane and probed.

For test [3], the target named is T1, Trk-A (Rattus norvegicus, UniProt P35739).
T1 construct: endogenous in cells; host or cells: PC12 cells
T1 sequence (P35739 33-799): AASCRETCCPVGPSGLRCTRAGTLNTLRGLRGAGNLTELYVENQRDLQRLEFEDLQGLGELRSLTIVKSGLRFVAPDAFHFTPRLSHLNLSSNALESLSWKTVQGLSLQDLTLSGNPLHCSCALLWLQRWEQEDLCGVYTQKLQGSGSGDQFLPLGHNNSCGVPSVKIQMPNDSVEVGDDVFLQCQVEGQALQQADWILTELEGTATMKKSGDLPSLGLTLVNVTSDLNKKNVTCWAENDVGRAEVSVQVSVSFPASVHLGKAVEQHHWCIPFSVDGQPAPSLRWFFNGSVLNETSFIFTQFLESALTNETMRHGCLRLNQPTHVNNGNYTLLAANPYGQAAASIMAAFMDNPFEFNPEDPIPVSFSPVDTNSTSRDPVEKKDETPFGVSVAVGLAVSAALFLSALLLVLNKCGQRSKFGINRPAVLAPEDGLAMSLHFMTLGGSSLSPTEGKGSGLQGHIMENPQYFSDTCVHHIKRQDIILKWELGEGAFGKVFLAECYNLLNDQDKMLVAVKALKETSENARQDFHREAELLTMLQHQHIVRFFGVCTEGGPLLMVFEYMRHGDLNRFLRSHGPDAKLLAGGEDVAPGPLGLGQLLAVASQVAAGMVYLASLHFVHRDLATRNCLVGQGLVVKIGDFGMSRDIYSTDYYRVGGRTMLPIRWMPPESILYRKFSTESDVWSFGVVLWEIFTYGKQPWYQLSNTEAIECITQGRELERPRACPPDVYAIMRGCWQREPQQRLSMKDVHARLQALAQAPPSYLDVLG
Put plainly: Trk-A autophosphorylation in PC12 cells. It counts as cell-based. The conditions noted are these: 10 μM compound, 30 min, FIG. 5. As for the experimental part: To evaluate the ability of the compounds 3-aza-bicyclo(3.2.1)octanes of formula (I) and their dimeric forms of formula (II) and (III) reported in Table 14 to induce Trk-A autophosphorylation, PC12 cells were cultured in medium supplemented with 5% FBS for 48 hours, washed and equilibrated in serum-free medium for 2 hours. 2.5×10^6 cells were then stimulated with 10 μM of selected compounds for 30 min or with 10 nM hrNGF as positive control. Cells were then lysed with 0.5% Triton-X100 in PBS supplemented with protease inhibitors (PMSF, aprotinin, pepstatin, leupeptin) and phosphatase inhibitors. Protein concentrations in each sample was evaluated by Bradford assay and equal amounts (50 μg) of proteins were loaded onto SDS-polyacrilamide gel, electrophoresed and blotted onto nitrocellulose membrane. Membranes was stained with rabbit anti-(Tyr 490 and Tyr 674/675) phosphorylated Trk-A (Cell Signaling Technology) used at the final dilution of 1:1000. After washing, membranes were stained with HRP-conjugated anti-rabbit IgG and the reaction was visualised by using ECL reagents following manufacturing instructions.

Like-named read-outs stand apart in the source and are kept apart here.

Broadly, the Kd is the constant that tells how readily two partners part at equilibrium.

“hrNGF: human recombinant (hr)NGF used as internal standard”: in test [1] (FIG. 4b, read-out: Kd (displacement curve, hrNGF as competitor)), the Kd is 0.114 nM. Further, the VGF production induced entry in test [2] (10 nM hrNGF) was “induced”.

For `COC(=O)C1OC2OC1C(=O)N(Cc1ccccc1)C2Cc1ccccc1` (centres unmarked) [Compound 9], in test [3], the “induction of Trk-A autophosphorylation” value was “able to induce Trk-A autophosphorylation”. Also, in test [1] (FIG. 4a, read-out: Kd (displacement curve, compound used as competitor)), the Kd was found to be 165 nM. The VGF production induced result in test [2] (10 μM compound) is given as “induced”.

Values taken from US7625892B2, “Pharmaceutical compositions for the treatment of diseases related to neurotrophines” (Mimetech S.r.l., priority 2002, dated 2009).
